This note sets out measurements from patent US8637499B2, “Benzoxazepines as inhibitors of PI3K/mTOR and methods of their use and manufacture” (Exelixis, Inc., priority 2009, dated 2014).

In test [1] the target is PI3Kα (Homo sapiens, UniProt P42336). As to the kind of experiment: PI3K Biochemical Assays (ATP consumption, luciferase-luciferin chemiluminescence). Particulars: PI3Kα 1.5 nM, ATP 1 μM, PIP2 10 μM; percent of ATP consumed. In a few lines: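 Kinase activity read as percent ATP consumed via luciferase-luciferin chemiluminescence. 1.5 nM enzyme, 1 μM ATP, 10 μM PIP2 in 50 mM Tris pH 7.5, 1 mM EGTA, 10 mM MgCl2, 1 mM DTT, 0.03% CHAPS; ~2 h at ambient temperature, ATP consumption kept to 40-60%.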

In test [2] the target is mTORC1 (mTOR/GbL/Raptor) (Homo sapiens, UniProt P42345). As to the kind of experiment: mTOR/GbL/Raptor (mTORC1) ELISA Assay. Particulars: 0.2 nM mTORC1, 10 μM ATP, 50 nM NHis-tagged 4E-BP1; phosphorylation of 4E-BP1; read-out: IC50. Format: biochemical. The method, boiled down: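 mTORC1 (0.2 nM) phosphorylated NHis-tagged 4E-BP1 (50 nM) with 10 μM ATP in 20 mM Hepes pH 7.2, 10 mM MnCl2, for 120 min at ambient temperature. Product was captured on Ni-chelate plates and detected with anti-phospho-4E-BP1 plus HRP secondary antibody by chemiluminescence.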

Sequence of PI3Kα (P42336 whole entry): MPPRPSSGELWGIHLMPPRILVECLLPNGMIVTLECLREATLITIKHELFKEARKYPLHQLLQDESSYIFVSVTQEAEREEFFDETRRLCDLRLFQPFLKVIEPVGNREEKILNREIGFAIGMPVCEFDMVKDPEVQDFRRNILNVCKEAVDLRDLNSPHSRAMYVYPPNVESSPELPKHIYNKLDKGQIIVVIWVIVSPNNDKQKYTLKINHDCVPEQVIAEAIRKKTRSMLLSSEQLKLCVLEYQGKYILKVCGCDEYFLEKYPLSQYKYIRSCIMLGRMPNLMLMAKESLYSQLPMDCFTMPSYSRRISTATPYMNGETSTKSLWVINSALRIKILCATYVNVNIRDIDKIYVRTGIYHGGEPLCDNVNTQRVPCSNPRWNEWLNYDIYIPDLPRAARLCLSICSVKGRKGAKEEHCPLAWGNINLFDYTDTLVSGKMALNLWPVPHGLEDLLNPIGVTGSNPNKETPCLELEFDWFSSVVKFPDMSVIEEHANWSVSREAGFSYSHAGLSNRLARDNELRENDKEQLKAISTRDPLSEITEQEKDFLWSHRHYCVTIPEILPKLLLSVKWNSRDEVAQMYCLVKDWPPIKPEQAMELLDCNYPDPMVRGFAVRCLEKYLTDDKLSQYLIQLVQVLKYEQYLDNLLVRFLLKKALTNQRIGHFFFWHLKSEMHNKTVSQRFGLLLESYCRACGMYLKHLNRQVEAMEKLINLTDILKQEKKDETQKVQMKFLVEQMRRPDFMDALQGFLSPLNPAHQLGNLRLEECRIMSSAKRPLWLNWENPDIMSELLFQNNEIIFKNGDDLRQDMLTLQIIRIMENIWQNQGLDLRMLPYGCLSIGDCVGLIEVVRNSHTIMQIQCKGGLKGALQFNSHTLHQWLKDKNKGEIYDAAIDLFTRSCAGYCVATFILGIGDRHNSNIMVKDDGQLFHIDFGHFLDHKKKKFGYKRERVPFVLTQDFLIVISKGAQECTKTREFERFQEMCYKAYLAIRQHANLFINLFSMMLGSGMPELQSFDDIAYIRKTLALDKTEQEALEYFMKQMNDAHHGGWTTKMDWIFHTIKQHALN
Sequence of PI3Kα (P27986 whole entry partner): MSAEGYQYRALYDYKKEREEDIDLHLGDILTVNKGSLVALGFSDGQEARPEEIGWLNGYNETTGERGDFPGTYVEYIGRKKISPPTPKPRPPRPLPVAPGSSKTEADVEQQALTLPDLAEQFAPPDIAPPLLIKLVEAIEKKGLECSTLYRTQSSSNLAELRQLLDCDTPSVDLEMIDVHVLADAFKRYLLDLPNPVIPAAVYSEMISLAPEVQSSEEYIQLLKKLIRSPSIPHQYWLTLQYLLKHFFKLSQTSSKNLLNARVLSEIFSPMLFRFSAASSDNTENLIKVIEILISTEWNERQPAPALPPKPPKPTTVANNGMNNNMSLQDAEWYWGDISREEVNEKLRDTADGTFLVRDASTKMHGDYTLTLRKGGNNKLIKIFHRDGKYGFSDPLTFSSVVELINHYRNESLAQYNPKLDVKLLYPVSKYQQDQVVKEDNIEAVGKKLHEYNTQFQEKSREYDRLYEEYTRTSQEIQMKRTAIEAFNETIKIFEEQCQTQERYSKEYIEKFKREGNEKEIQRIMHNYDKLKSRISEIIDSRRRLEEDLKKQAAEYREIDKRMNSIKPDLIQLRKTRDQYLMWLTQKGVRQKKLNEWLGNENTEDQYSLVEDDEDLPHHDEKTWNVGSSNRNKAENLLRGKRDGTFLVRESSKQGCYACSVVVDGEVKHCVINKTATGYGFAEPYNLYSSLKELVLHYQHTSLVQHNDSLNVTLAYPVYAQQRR

For the compound `Cc1nc2ccc(-c3ccc4c(c3)CN(C(=O)N3CCC(C)(F)CC3)CCO4)cc2[nH]1` [Compound 83, 4-[(4-fluoro-4-methylpiperidin-1-yl)carbonyl]-7-(2-methyl-1H-benzimidazol-6-yl)-2,3,4,5-tetrahydro-1,4-benzoxazepine], the IC50 in test [1] lay within 1000 to 3000 nM; in test [2], 50 to 250 nM.

Turning to `Cc1nc2ccc(-c3ccc4c(c3)CN(C(=O)N3CC5CCCC5C3)CCO4)cc2[nH]1` (stereo not shown) [Compound 84, 4-(hexahydrocyclopenta[c]pyrrol-2(1H)-ylcarbonyl)-7-(2-methyl-1H-benzimidazol-6-yl)-2,3,4,5-tetrahydro-1,4-benzoxazepine], the IC50 is 200 to 500 nM in test [1] and 50 to 250 nM in test [2].

For `Cc1nc2ccc(-c3ccc4c(c3)CN(C(=O)N3CCCc5ccccc53)CCO4)cc2[nH]1` [Compound 85, 4-(3,4-dihydroquinolin-1(2H)-ylcarbonyl)-7-(2-methyl-1H-benzimidazol-6-yl)-2,3,4,5-tetrahydro-1,4-benzoxazepine], the IC50 was 1000 to 3000 nM in test [1] and 50 to 250 nM in test [2].

Consider `Cc1nc2ccc(-c3ccc4c(c3)CN(C(=O)N3CCCCC3)CCO4)cc2[nH]1` [Compound 86, 7-(2-methyl-1H-benzimidazol-6-yl)-4-(piperidin-1-ylcarbonyl)-2,3,4,5-tetrahydro-1,4-benzoxazepine], for which the figures for the IC50 in test [1] and in test [2] were 200 to 500 nM and 250 to 700 nM, respectively.

For the compound `Cc1nc2ccc(-c3ccc4c(c3)CN(C(=O)N3CCCC(C)C3)CCO4)cc2[nH]1` (stereo not shown) [Compound 88, 7-(2-methyl-1H-benzimidazol-6-yl)-4-[(3-methylpiperidin-1-yl)carbonyl]-2,3,4,5-tetrahydro-1,4-benzoxazepine], the IC50 lay within 200 to 500 nM in test [1] and 250 to 700 nM in test [2].

Consider `Cc1nc2ccc(-c3ccc4c(c3)CN(C(=O)N3CCCCCC3)CCO4)cc2[nH]1` [Compound 89, 4-(azepan-1-ylcarbonyl)-7-(2-methyl-1H-benzimidazol-6-yl)-2,3,4,5-tetrahydro-1,4-benzoxazepine], for which the IC50 was 500 to 1000 nM in test [1] and 250 to 700 nM in test [2].

With `Cc1nc2cc(-c3ccc4c(c3)CN(C(=O)N3C[C@H]5CC(C)C[C@H]5C3)CCO4)ccc2[nH]1` (stereo partly drawn) [Compound 90, 7-(2-methyl-1H-benzimidazol-5-yl)-4-{[(3aR,6aS)-5-methylhexahydrocyclopenta[c]pyrrol-2(1H)-yl]carbonyl}-2,3,4,5-tetrahydro-1,4-benzoxazepine], the IC50 was in the range of 200 to 500 nM in test [1] and 50 to 250 nM in test [2].

`Cc1nc2ccc(-c3ccc4c(c3)CN(C(=O)N(C)Cc3ccccc3)CCO4)cc2[nH]1` [Compound 92, N-methyl-7-(2-methyl-1H-benzimidazol-6-yl)-N-(phenylmethyl)-2,3-dihydro-1,4-benzoxazepine-4(5H)-carboxamide]: the 50% inhibitory concentration (IC50) in test [1] was in the range of 500 to 1000 nM; in test [2], 50 to 250 nM.

Turning to `Cc1nc2ccc(-c3ccc4c(c3)CN(C(=O)N(C)CCc3ccccc3)CCO4)cc2[nH]1` [Compound 93, N-methyl-7-(2-methyl-1H-benzimidazol-6-yl)-N-(2-phenylethyl)-2,3-dihydro-1,4-benzoxazepine-4(5H)-carboxamide], the results for the IC50 in test [1] and in test [2] were 1000 to 3000 nM and 700 to 2600 nM, respectively.

For the compound `Cc1nc2ccc(-c3ccc4c(c3)CN(C(=O)N3CCCC3Cc3ccccc3)CCO4)cc2[nH]1` (stereo not shown) [Compound 94, 7-(2-methyl-1H-benzimidazol-6-yl)-4-{[2-(phenylmethyl)pyrrolidin-1-yl]carbonyl}-2,3,4,5-tetrahydro-1,4-benzoxazepine], the values for the IC50 in test [1] and in test [2] were 1000 to 3000 nM and 50 to 250 nM, respectively.

Regarding `Cc1nc2ccc(-c3ccc4c(c3)CN(C(=O)N3CCCC3c3ccccc3)CCO4)cc2[nH]1` (stereo not shown) [Compound 95, 7-(2-methyl-1H-benzimidazol-6-yl)-4-[(2-phenylpyrrolidin-1-yl)carbonyl]-2,3,4,5-tetrahydro-1,4-benzoxazepine], the IC50 in test [1] fell in the range of 500 to 1000 nM; in test [2] it was 50 to 250 nM.

As for `Cc1nc2ccc(-c3ccc4c(c3)CN(C(=O)N3CCCCC3c3ccccc3)CCO4)cc2[nH]1` (stereo not shown) [Compound 96, 7-(2-methyl-1H-benzimidazol-6-yl)-4-[(2-phenylpiperidin-1-yl)carbonyl]-2,3,4,5-tetrahydro-1,4-benzoxazepine], the IC50 in test [1] was 75 to 200 nM; in test [2] it was ≤ 50 nM.

As for `Cc1nc2ccc(-c3ccc4c(c3)CN(C(=O)N3CCCC(c5ccccc5)C3)CCO4)cc2[nH]1` (stereo not shown) [Compound 97, 7-(2-methyl-1H-benzimidazol-6-yl)-4-[(3-phenylpiperidin-1-yl)carbonyl]-2,3,4,5-tetrahydro-1,4-benzoxazepine], the figures for the IC50 in test [1] and in test [2] were 500 to 1000 nM and 250 to 700 nM, respectively.

Regarding `Cc1nc2ccc(-c3ccc4c(c3)CN(C(=O)N3CCC(c5ccccc5)C3)CCO4)cc2[nH]1` (stereo not shown) [Compound 98, 7-(2-methyl-1H-benzimidazol-6-yl)-4-[(3-phenylpyrrolidin-1-yl)carbonyl]-2,3,4,5-tetrahydro-1,4-benzoxazepine], the values for the IC50 in test [1] and in test [2] were 500 to 1000 nM and 50 to 250 nM, respectively.

As for `Cc1nc2ccc(-c3ccc4c(c3)CN(C(=O)N3CCCC3C)CCO4)cc2[nH]1` (stereo not shown) [Compound 99, 7-(2-methyl-1H-benzimidazol-6-yl)-4-[(2-methylpyrrolidin-1-yl)carbonyl]-2,3,4,5-tetrahydro-1,4-benzoxazepine], the values for the IC50 in test [1] and in test [2] were 500 to 1000 nM and 700 to 2600 nM, respectively.

As to `Cc1nc2ccc(-c3ccc4c(c3)CN(C(=O)N3CCC(Cc5ccccc5)C3)CCO4)cc2[nH]1` (stereo not shown) [Compound 100, 7-(2-methyl-1H-benzimidazol-6-yl)-4-{[3-(phenylmethyl)pyrrolidin-1-yl]carbonyl}-2,3,4,5-tetrahydro-1,4-benzoxazepine], the half-maximal inhibitory concentration (IC50) was in the range of 500 to 1000 nM in test [1] and 250 to 700 nM in test [2].

`Cc1nc2ccc(-c3ccc4c(c3)CN(C(=O)N3CCC(S(C)(=O)=O)CC3)CCO4)cc2[nH]1` [Compound 102, 7-(2-methyl-1H-benzimidazol-6-yl)-4-{[4-(methylsulfonyl)piperidin-1-yl]carbonyl}-2,3,4,5-tetrahydro-1,4-benzoxazepine]: the values for the IC50 in test [1] and in test [2] were 500 to 1000 nM and 50 to 250 nM, respectively.

Regarding `Cc1nc2ccc(-c3ccc4c(c3)CN(C(=O)N(Cc3ccccc3)C(C)C)CCO4)cc2[nH]1` [Compound 103, 7-(2-methyl-1H-benzimidazol-6-yl)-N-(1-methylethyl)-N-(phenylmethyl)-2,3-dihydro-1,4-benzoxazepine-4(5H)-carboxamide], the IC50 lay in the range of 1000 to 3000 nM in test [1] and 50 to 250 nM in test [2].

Take `COC1CCN(C(=O)N2CCOc3ccc(-c4ccc5nc(C)[nH]c5c4)cc3C2)CC1` [Compound 105, 7-(2-methyl-1H-benzimidazol-6-yl)-4-{[4-(methyloxy)piperidin-1-yl]carbonyl}-2,3,4,5-tetrahydro-1,4-benzoxazepine]: the figures for the IC50 in test [1] and in test [2] were 500 to 1000 nM and 50 to 250 nM, respectively.

With `Cc1nc2ccc(-c3ccc4c(c3)CN(C(=O)N3CCCC(Cc5ccccc5)C3)CCO4)cc2[nH]1` (stereo not shown) [Compound 106, 7-(2-methyl-1H-benzimidazol-6-yl)-4-{[3-(phenylmethyl)piperidin-1-yl]carbonyl}-2,3,4,5-tetrahydro-1,4-benzoxazepine], the IC50 in test [1] lay within 1000 to 3000 nM; in test [2] it was 250 to 700 nM.

Consider `Cc1nc2ccc(-c3ccc4c(c3)CN(C(=O)N3CC5CCC3C5)CCO4)cc2[nH]1` (stereo not shown) [Compound 107, 4-(2-azabicyclo[2.2.1]hept-2-ylcarbonyl)-7-(2-methyl-1H-benzimidazol-6-yl)-2,3,4,5-tetrahydro-1,4-benzoxazepine], for which the IC50 in test [1] lay within 500 to 1000 nM; in test [2] it was 250 to 700 nM.

For `Cc1nc2ccc(-c3ccc4c(c3)CN(C(=O)N3CCCC(O)C3)CCO4)cc2[nH]1` (stereo not shown) [Compound 108, 1-{[7-(2-methyl-1H-benzimidazol-6-yl)-2,3-dihydro-1,4-benzoxazepin-4(5H)-yl]carbonyl}piperidin-3-ol], the IC50 in test [1] fell in the range of 500 to 1000 nM; in test [2], 250 to 700 nM.

In the case of `Cc1nc2ccc(-c3ccc4c(c3)CN(C(=O)N(C)[C@H](C)c3ccccc3)CCO4)cc2[nH]1` [Compound 109, N-methyl-7-(2-methyl-1H-benzimidazol-6-yl)-N-[(1R)-1-phenylethyl]-2,3-dihydro-1,4-benzoxazepine-4(5H)-carboxamide], the IC50 in test [1] was 75 to 200 nM; in test [2], ≤ 50 nM.

As for `Cc1nc2ccc(-c3ccc4c(c3)CN(C(=O)N3CC5CN(c6ccccc6)CC5C3)CCO4)cc2[nH]1` (stereo not shown) [Compound 110, 7-(2-methyl-1H-benzimidazol-6-yl)-4-[(5-phenylhexahydropyrrolo[3,4-c]pyrrol-2(1H)-yl)carbonyl]-2,3,4,5-tetrahydro-1,4-benzoxazepine], the IC50 in test [1] was in the range of 200 to 500 nM; in test [2], 250 to 700 nM.

Turning to `Cc1nc2ccc(-c3ccc4c(c3)CN(C(=O)N3CCC(=O)CC3c3ccccc3)CCO4)cc2[nH]1` (stereo not shown) [Compound 111, 1-{[7-(2-methyl-1H-benzimidazol-6-yl)-2,3-dihydro-1,4-benzoxazepin-4(5H)-yl]carbonyl}-2-phenylpiperidin-4-one], the concentration for half-maximal inhibition (IC50) was 75 to 200 nM in test [1] and ≤ 50 nM in test [2].

For `Cc1nc2ccc(-c3ccc4c(c3)CN(C(=O)N3CCc5ccccc5C3)CCO4)cc2[nH]1` [Compound 113, 4-(3,4-dihydroisoquinolin-2(1H)-ylcarbonyl)-7-(2-methyl-1H-benzimidazol-6-yl)-2,3,4,5-tetrahydro-1,4-benzoxazepine], the values for the IC50 in test [1] and in test [2] were 500 to 1000 nM and 50 to 250 nM, respectively.
